Reference: patent publication US20100003217A1, “Compounds and Pharmaceutical Compositions for the Treatment of Viral Infections” (priority 2008, published 2010)
Several values for one entry are separate records, joined by “and”; a condition that tells them apart may be missing. Identical values can stand only once.

How the values were obtained:
[1] = test system: human primary hepatocytes; assay: Metabolic disposition of [^14C]-Compound 1 and [^14C]-2′-C-methyl guanosine in human primary hepatocytes (incubation medium, cellular extracts, nucleotide levels); assay type: in vitro ADME
How it was run: (§1)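 Rat, monkey or human primary hepatocytes on collagen I plates (1.6 million cells/mL) were incubated at 37° C with 1 or 10 μM C-8 [^14C]-labelled compound or 2′-C-methyl guanosine for 1, 4, 8 and 24 hours. Medium and 70% methanol cell extracts were analysed by LSC and radio-HPLC. Nucleotides were identified by alkaline phosphatase treatment and retention-time matching to standards.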

[2] = test system: monkey primary hepatocytes; assay: Metabolic disposition of [^14C]-Compound 1 and [^14C]-2′-C-methyl guanosine in monkey primary hepatocytes (incubation medium, cellular extracts, nucleotide levels); assay type: in vitro ADME, Cynomolgus monkey
How it was run: as §1

[3] = human hepatocytes (Hu775), 1 μM [^14C]-Compound 1, 0 h
[4] = human hepatocytes (Hu775), 1 μM [^14C]-Compound 1, 1 h
[5] = human hepatocytes (Hu775), 1 μM [^14C]-Compound 1, 8 h
[6] = human hepatocytes (Hu775), 1 μM [^14C]-Compound 1, 24 h
[7] = human hepatocytes Hu775, 1 μM [^14C]-2′-C-methyl guanosine, 1 h
[8] = human hepatocytes Hu775, 1 μM [^14C]-2′-C-methyl guanosine, 8 h
[9] = human hepatocytes Hu775, 1 μM [^14C]-2′-C-methyl guanosine, 24 h
[10] = monkey hepatocytes (Cy234), 10 μM [^14C]-Compound 1, 4 h
[11] = monkey hepatocytes Cy230, 10 μM [^14C]-2′-C-methyl guanosine, 1 h
[12] = monkey hepatocytes Cy230, 10 μM [^14C]-2′-C-methyl guanosine, 8 h
[13] = monkey hepatocytes Cy230, 10 μM [^14C]-2′-C-methyl guanosine, 24 h
[14] = monkey hepatocytes Cy234, 10 μM [^14C]-2′-C-methyl guanosine, 1 h
[15] = monkey hepatocytes Cy234, 10 μM [^14C]-2′-C-methyl guanosine, 4 h
[16] = monkey hepatocytes Cy234, 10 μM [^14C]-2′-C-methyl guanosine, 8 h
[17] = monkey hepatocytes Cy234, 10 μM [^14C]-2′-C-methyl guanosine, 24 h

C[C@@]1(O)[C@H](O)[C@@H](COP(=O)(O)O)O[C@H]1n1cnc2c(=O)[nH]c(N)nc21 [Compound 5, [(2R)-2-methyl-β-D-ribofuranosyl]guanine 5′-monophosphate]
metabolites observed in cellular extracts (% of total radioactivity) ([1]; human hepatocytes (Hu759, Hu775), 10 μM [^14C]-2′-C-methyl guanosine, 8 h): 1.89% and 1.11% | metabolites observed in cellular extracts (% of total radioactivity) ([1]; human hepatocytes (Hu759, Hu775), 10 μM [^14C]-2′-C-methyl guanosine, 24 h): 3.82% and 3.41% | metabolites observed in cellular extracts (% of total radioactivity) ([1]; human hepatocytes (Hu759, Hu775), 10 μM [^14C]-Compound 1, 1 h): 6.44% and 8.77% | metabolites observed in cellular extracts (% of total radioactivity) ([1]; human hepatocytes (Hu759, Hu775), 10 μM [^14C]-Compound 1, 4 h): 5.70% and 5.54% | metabolites observed in cellular extracts (% of total radioactivity) ([1]; human hepatocytes (Hu759, Hu775), 10 μM [^14C]-Compound 1, 8 h): 7.99% and 4.44% | metabolites observed in cellular extracts (% of total radioactivity) ([1]; human hepatocytes (Hu759, Hu775), 10 μM [^14C]-Compound 1, 24 h): 5.38% and 12.8% | 2′-C-methyl guanosine nucleotide levels in cellular extracts [1, 3]: BLD^a (BLD = below limit of detection (0.02 pmol/million cells)) | metabolites observed in medium (% of total radioactivity) [1, 3]: BLD | 2′-C-methyl guanosine nucleotide levels in cellular extracts [1, 4]: 2.40 pmol/million cells | metabolites observed in cellular extracts (% of total radioactivity) [1, 4]: 5.45% | metabolites observed in medium (% of total radioactivity) [1, 4]: BLD | 2′-C-methyl guanosine nucleotide levels in cellular extracts [1, 5]: 2.10 pmol/million cells | metabolites observed in cellular extracts (% of total radioactivity) [1, 5]: 3.60% | metabolites observed in medium (% of total radioactivity) [1, 5]: 10.4% | 2′-C-methyl guanosine nucleotide levels in cellular extracts [1, 6]: 5.80 pmol/million cells | metabolites observed in cellular extracts (% of total radioactivity) [1, 6]: 6.41% | metabolites observed in medium (% of total radioactivity) [1, 6]: 8% and 8.29% | metabolites observed in medium (% of total radioactivity) ([1]; human hepatocytes (lots Hu759, Hu775), 10 μM [^14C]-Compound 1, 0 h): BLD | metabolites observed in medium (% of total radioactivity) ([1]; human hepatocytes (lots Hu759, Hu775), 10 μM [^14C]-Compound 1, 1 h): 4.4% and 0.5% | metabolites observed in medium (% of total radioactivity) ([1]; human hepatocytes (lots Hu759, Hu775), 10 μM [^14C]-Compound 1, 4 h): 3.9% and 4.5% | metabolites observed in medium (% of total radioactivity) ([1]; human hepatocytes (lots Hu759, Hu775), 10 μM [^14C]-Compound 1, 8 h): 5.1% and 7.2% | metabolites observed in medium (% of total radioactivity) ([1]; human hepatocytes (lots Hu759, Hu775), 10 μM [^14C]-Compound 1, 24 h): 4.7% and 7.1% | 2′-C-methyl guanosine nucleotide levels in cellular extracts ([1]; human hepatocytes Hu759, 10 μM [^14C]-2′-C-methyl guanosine, 0 h): 0 pmol/million cells | 2′-C-methyl guanosine nucleotide levels in cellular extracts ([1]; human hepatocytes Hu759, 10 μM [^14C]-2′-C-methyl guanosine, 1 h): BLD^a (BLD = below limit of detection (0.02 pmol/million cells)) | 2′-C-methyl guanosine nucleotide levels in cellular extracts ([1]; human hepatocytes Hu759, 10 μM [^14C]-2′-C-methyl guanosine, 4 h): BLD (BLD = below limit of detection (0.02 pmol/million cells)) | 2′-C-methyl guanosine nucleotide levels in cellular extracts ([1]; human hepatocytes Hu759, 10 μM [^14C]-2′-C-methyl guanosine, 8 h): 9.00 pmol/million cells | 2′-C-methyl guanosine nucleotide levels in cellular extracts ([1]; human hepatocytes Hu759, 10 μM [^14C]-2′-C-methyl guanosine, 24 h): 23.0 pmol/million cells | 2′-C-methyl guanosine nucleotide levels in cellular extracts ([1]; human hepatocytes Hu759, 10 μM [^14C]-Compound 1, 0 h): 0 pmol/million cells | 2′-C-methyl guanosine nucleotide levels in cellular extracts ([1]; human hepatocytes Hu759, 10 μM [^14C]-Compound 1, 1 h): 4.00 pmol/million cells | 2′-C-methyl guanosine nucleotide levels in cellular extracts ([1]; human hepatocytes Hu759, 10 μM [^14C]-Compound 1, 4 h): 15.0 pmol/million cells | 2′-C-methyl guanosine nucleotide levels in cellular extracts ([1]; human hepatocytes Hu759, 10 μM [^14C]-Compound 1, 8 h): 25.0 pmol/million cells | 2′-C-methyl guanosine nucleotide levels in cellular extracts ([1]; human hepatocytes Hu759, 10 μM [^14C]-Compound 1, 24 h): 28.0 pmol/million cells | 2′-C-methyl guanosine nucleotide levels in cellular extracts ([1]; human hepatocytes Hu775, 1 μM [^14C]-2′-C-methyl guanosine, 0 h): BLD (BLD = below limit of detection (0.02 pmol/million cells)) | 2′-C-methyl guanosine nucleotide levels in cellular extracts [1, 7]: BLD (BLD = below limit of detection (0.02 pmol/million cells)) | Major metabolites observed in cellular extracts (% of total radioactivity) [1, 7]: BLD^a (BLD = below limit of detection (30 DPM)) | 2′-C-methyl guanosine nucleotide levels in cellular extracts [1, 8]: BLD (BLD = below limit of detection (0.02 pmol/million cells)) | Major metabolites observed in cellular extracts (% of total radioactivity) [1, 8]: BLD (BLD = below limit of detection (30 DPM)) | 2′-C-methyl guanosine nucleotide levels in cellular extracts [1, 9]: 1.50 pmol/million cells | Major metabolites observed in cellular extracts (% of total radioactivity) [1, 9]: 3.39 % of total radioactivity | 2′-C-methyl guanosine nucleotide levels in cellular extracts ([1]; human hepatocytes Hu775, 10 μM [^14C]-2′-C-methyl guanosine, 0 h): 0 pmol/million cells | 2′-C-methyl guanosine nucleotide levels in cellular extracts ([1]; human hepatocytes Hu775, 10 μM [^14C]-2′-C-methyl guanosine, 1 h): 2.80 pmol/million cells | 2′-C-methyl guanosine nucleotide levels in cellular extracts ([1]; human hepatocytes Hu775, 10 μM [^14C]-2′-C-methyl guanosine, 4 h): 4.00 pmol/million cells | 2′-C-methyl guanosine nucleotide levels in cellular extracts ([1]; human hepatocytes Hu775, 10 μM [^14C]-2′-C-methyl guanosine, 8 h): 4.90 pmol/million cells | 2′-C-methyl guanosine nucleotide levels in cellular extracts ([1]; human hepatocytes Hu775, 10 μM [^14C]-2′-C-methyl guanosine, 24 h): 16.0 pmol/million cells | 2′-C-methyl guanosine nucleotide levels in cellular extracts ([1]; human hepatocytes Hu775, 10 μM [^14C]-Compound 1, 0 h): 0 pmol/million cells | 2′-C-methyl guanosine nucleotide levels in cellular extracts ([1]; human hepatocytes Hu775, 10 μM [^14C]-Compound 1, 1 h): 10.3 pmol/million cells | 2′-C-methyl guanosine nucleotide levels in cellular extracts ([1]; human hepatocytes Hu775, 10 μM [^14C]-Compound 1, 4 h): 17.1 pmol/million cells | 2′-C-methyl guanosine nucleotide levels in cellular extracts ([1]; human hepatocytes Hu775, 10 μM [^14C]-Compound 1, 8 h): 21.9 pmol/million cells | 2′-C-methyl guanosine nucleotide levels in cellular extracts ([1]; human hepatocytes Hu775, 10 μM [^14C]-Compound 1, 24 h): 121 pmol/million cells | metabolites observed in cellular extracts (% of total radioactivity) ([2]; monkey hepatocytes (Cy230, Cy234), 10 μM [^14C]-Compound 1, 8 h): 3.84% and 5.38% | metabolites observed in cellular extracts (% of total radioactivity) ([2]; monkey hepatocytes (Cy230, Cy234), 10 μM [^14C]-Compound 1, 24 h): 6.96% and 3.34% | 2′-C-methyl guanosine nucleotide levels in cellular extracts [2, 10]: 14.3 pmol/million cells | metabolites observed in cellular extracts (% of total radioactivity) [2, 10]: 5.47% | metabolites observed in medium (% of total radioactivity) ([2]; monkey hepatocytes (lot Cy234), 10 μM [^14C]-Compound 1, 4 h): 19.0% | metabolites observed in medium (% of total radioactivity) ([2]; monkey hepatocytes (lots Cy230, Cy234), 10 μM [^14C]-Compound 1, 0 h): BLD | metabolites observed in medium (% of total radioactivity) ([2]; monkey hepatocytes (lots Cy230, Cy234), 10 μM [^14C]-Compound 1, 24 h): 8% and 8.4% and 7.5% | 2′-C-methyl guanosine nucleotide levels in cellular extracts ([2]; monkey hepatocytes Cy230, 10 μM [^14C]-2′-C-methyl guanosine, 0 h): 0 pmol/million cells | 2′-C-methyl guanosine nucleotide levels in cellular extracts [2, 11]: BLD^b (BLD = below limit of detection (0.02 pmol/million cells)) | Major metabolites observed in cellular extracts (% of total radioactivity) [2, 11]: BLD^b (BLD = below limit of detection (30 DPM)) | 2′-C-methyl guanosine nucleotide levels in cellular extracts [2, 12]: BLD (BLD = below limit of detection (0.02 pmol/million cells)) | Major metabolites observed in cellular extracts (% of total radioactivity) [2, 12]: BLD (BLD = below limit of detection (30 DPM)) | 2′-C-methyl guanosine nucleotide levels in cellular extracts [2, 13]: BLD (BLD = below limit of detection (0.02 pmol/million cells)) | Major metabolites observed in cellular extracts (% of total radioactivity) [2, 13]: BLD (BLD = below limit of detection (30 DPM)) | 2′-C-methyl guanosine nucleotide levels in cellular extracts ([2]; monkey hepatocytes Cy230, 10 μM [^14C]-Compound 1, 0 h): 0 pmol/million cells | 2′-C-methyl guanosine nucleotide levels in cellular extracts ([2]; monkey hepatocytes Cy230, 10 μM [^14C]-Compound 1, 1 h): 23.9 pmol/million cells | 2′-C-methyl guanosine nucleotide levels in cellular extracts ([2]; monkey hepatocytes Cy230, 10 μM [^14C]-Compound 1, 8 h): 42.5 pmol/million cells | 2′-C-methyl guanosine nucleotide levels in cellular extracts ([2]; monkey hepatocytes Cy230, 10 μM [^14C]-Compound 1, 24 h): 33.2 pmol/million cells | 2′-C-methyl guanosine nucleotide levels in cellular extracts ([2]; monkey hepatocytes Cy234, 10 μM [^14C]-2′-C-methyl guanosine, 0 h): 0 pmol/million cells | 2′-C-methyl guanosine nucleotide levels in cellular extracts [2, 14]: 0.95 pmol/million cells | Major metabolites observed in cellular extracts (% of total radioactivity) [2, 14]: 2.19 % of total radioactivity | 2′-C-methyl guanosine nucleotide levels in cellular extracts [2, 15]: BLD (BLD = below limit of detection (0.02 pmol/million cells)) | Major metabolites observed in cellular extracts (% of total radioactivity) [2, 15]: BLD (BLD = below limit of detection (30 DPM)) | 2′-C-methyl guanosine nucleotide levels in cellular extracts [2, 16]: 3.00 pmol/million cells | Major metabolites observed in cellular extracts (% of total radioactivity) [2, 16]: 3.32 % of total radioactivity | 2′-C-methyl guanosine nucleotide levels in cellular extracts [2, 17]: 5.50 pmol/million cells | Major metabolites observed in cellular extracts (% of total radioactivity) [2, 17]: 5.03 % of total radioactivity | 2′-C-methyl guanosine nucleotide levels in cellular extracts ([2]; monkey hepatocytes Cy234, 10 μM [^14C]-Compound 1, 0 h): 0 pmol/million cells | 2′-C-methyl guanosine nucleotide levels in cellular extracts ([2]; monkey hepatocytes Cy234, 10 μM [^14C]-Compound 1, 1 h): 11.7 pmol/million cells | 2′-C-methyl guanosine nucleotide levels in cellular extracts ([2]; monkey hepatocytes Cy234, 10 μM [^14C]-Compound 1, 8 h): 33.0 pmol/million cells | 2′-C-methyl guanosine nucleotide levels in cellular extracts ([2]; monkey hepatocytes Cy234, 10 μM [^14C]-Compound 1, 24 h): 23.2 pmol/million cells
